What was measured:
hGLP-1R = hGLP-1R (Homo sapiens (Human), UniProt P43220); assay: hGLP-1R cAMP assay (agonist cAMP stimulation, Flp-In-293-GLP1R cells); assay type: cell-based; conditions: 30 min at 37° C.
Protocol: hGLP-1R cAMP Assay • 1. Cell line and reagent preparation • 1) Cell line: Flp-In-293-GLP1R • 2) Medium: DMEM+10% FBS+1×Penicillin-Streptomycin+200 μg/mL HB • 3) Test buffer: 1×HBSS+20 mM HEPES+0.1% BSA+500 μM IBMX • 2. Agonist test • a) Flpin-293-GLP1R cells were incubated in a 384-well assay plate (6007680-50, PE) using complete medium with 2,000 cells per well. • b) Prepared a 4× […] working solution with assay buffer. • c) Added 5 μL of 4× Compound Working Solution to the cell plate and incubated at 37° C. for 30 minutes. • d) Diluted Eu-cAMP tracer (1/50) with lysis buffer and added 10 μl/well to the assay plate. • e) Diluted Ulight-anti-cAMP (1/150) with lysis buffer and added 10 μl/well to the assay plate. • f) Incubated at constant temperature for 1 hour. • g) Read the plate on Envision 2105 plate reader at […]. • 3. Data Analysis • 3.1 The formula for calculating % Activity was as follows
[formula] • 3.2 Calculate EC50 and plot the effect-dose curve for cmpds:
[formula] • X: logarithm of agonist concentration; Y: percentage activity.

[1] = Single-dose oral administration pharmacokinetic study in SD rats; assay type: in vivo; conditions: Sprague-Dawley, rat, 5 mg/kg, plasma; for Cmax: male SD rats; for AUC(0-t): male, po, exposure over 0-24 hours
Protocol: Single-dose oral administration pharmacokinetic (PK) studies in Sprague-Dawley (SD) rats Pharmacokinetic (PK) studies after a single-dose oral administration for compounds.
Protocol: Animals: Male Sprague-Dawley (SD) rats; Solvent: Solutol: PEG400: Tween80: Saline=10:40:2:48 (v/v/v/v); Dose: 5 mg/kg; Dosing concentration: 0.5 mg/mL in the solvent; Dosing volume: 10 mL/kg. Sample Collection: At each time point, approximately 0.15 mL of blood was drawn from the jugular vein sinus, and the collected whole blood was placed in an anticoagulant tube containing EDTA-K2. After collecting blood samples, they were processed with protein precipitation and then analyzed by LC-MS/MS.

Chain of hGLP-1R (P43220 24-463): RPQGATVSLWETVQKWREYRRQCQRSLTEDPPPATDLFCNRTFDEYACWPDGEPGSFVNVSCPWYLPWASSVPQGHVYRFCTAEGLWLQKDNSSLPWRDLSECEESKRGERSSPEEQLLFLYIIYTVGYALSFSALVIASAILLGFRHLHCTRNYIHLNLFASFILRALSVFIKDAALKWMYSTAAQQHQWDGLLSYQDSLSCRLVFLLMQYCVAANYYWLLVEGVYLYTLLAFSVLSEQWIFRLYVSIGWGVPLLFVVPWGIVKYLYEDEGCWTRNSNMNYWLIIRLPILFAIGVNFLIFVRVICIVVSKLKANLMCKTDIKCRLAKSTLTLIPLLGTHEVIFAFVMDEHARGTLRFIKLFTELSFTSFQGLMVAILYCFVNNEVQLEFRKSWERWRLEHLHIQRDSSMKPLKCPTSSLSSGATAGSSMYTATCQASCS

| EC50 (hGLP-1R) | Cmax [1] | AUC(0-t) [1] | Structure (SMILES) |
| --- | --- | --- | --- |
| 0.02 nM | 5610 ng/mL | 71200 ng·h/mL | C[C@H]1c2c(nn(-c3ccc(F)c(C4CC4)c3)c2-n2ccn(-c3ccc4c(cnn4C4CC4)c3F)c2=O)CCN1C(=O)c1cc2cc(C3CCOCC3)ccc2n1[C@@]1(c2noc(=O)[nH]2)C[C@@H]1C [Compound 33] |
| 0.015 nM | 3210 ng/mL | 29600 ng·h/mL | C[C@H]1c2c(nn(-c3ccc(F)c4c3CCC4)c2-n2ccn(-c3ccc4c(cnn4C4CC4)c3F)c2=O)CCN1C(=O)c1cc2cc(C3CCOCC3)ccc2n1[C@@]1(c2noc(=O)[nH]2)C[C@@H]1C [Compound 45] |
| 0.028 nM |  |  | C[C@H]1c2c(nn(-c3ccc(F)c(C4CC4)c3)c2-n2ccn(-c3ccc(CP(C)(C)=O)cc3)c2=O)CCN1C(=O)c1cc2cc(C3CCOCC3)ccc2n1[C@@]1(c2noc(=O)[nH]2)C[C@@H]1C [Compound 51] |

Source: patent publication US20250257062A1, “GLP-1R Agonist and Therapeutic Method Thereof” (Ascletis Pharma (China) Co., Limited, priority 2023, published 2025)
